Measurements reported in ChEMBL document CHEMBL1667829, “Analysis of β-amino alcohols as inhibitors of the potential anti-tubercular target N-acetyltransferase” (Bioorg Med Chem Lett, 2011).
Activity calls are given as the source filed them. The rule behind the calls is not given here.

Experiments:
[1] = target: T1, Arylamine N-acetyltransferase (Mycolicibacterium smegmatis, UniProt O86309); assay: Inhibition of Mycobacterium smegmatis NAT using isoniazed substrate by acetyl-coA hydrolysis assay
T1 sequence (O86309 whole entry): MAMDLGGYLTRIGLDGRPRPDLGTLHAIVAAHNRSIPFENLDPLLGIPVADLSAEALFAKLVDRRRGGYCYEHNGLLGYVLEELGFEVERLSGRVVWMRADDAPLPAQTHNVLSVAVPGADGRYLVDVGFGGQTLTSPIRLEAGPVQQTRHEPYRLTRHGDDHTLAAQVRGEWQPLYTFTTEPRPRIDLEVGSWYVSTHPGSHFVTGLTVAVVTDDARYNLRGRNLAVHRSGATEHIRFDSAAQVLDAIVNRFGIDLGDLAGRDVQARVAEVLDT

[2] = target: T2, Arylamine N-acetyltransferase (Pseudomonas aeruginosa (strain ATCC 15692 / PAO1 / 1C / PRS 101 / LMG12228), UniProt Q9HUY3); assay: Inhibition of Pseudomonas aeruginosa NAT using isoniazed substrate by acetyl-coA hydrolysis assay
T2 sequence (Q9HUY3 whole entry): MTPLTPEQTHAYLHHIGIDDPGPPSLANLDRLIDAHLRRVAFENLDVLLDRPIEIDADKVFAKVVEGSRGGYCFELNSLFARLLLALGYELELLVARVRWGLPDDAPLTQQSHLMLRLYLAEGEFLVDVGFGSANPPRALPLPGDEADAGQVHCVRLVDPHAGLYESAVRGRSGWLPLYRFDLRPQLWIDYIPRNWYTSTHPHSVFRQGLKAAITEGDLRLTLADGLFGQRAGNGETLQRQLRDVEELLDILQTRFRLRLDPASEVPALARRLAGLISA

Mycobacterium marinum [3] = assay: Inhibition of Mycobacterium marinum NAT using isoniazed substrate at 30 uM by acetyl-coA hydrolysis assay
[4] = target: T1, Arylamine N-acetyltransferase; assay: Inhibition of Mycobacterium smegmatis NAT using 5-aminosalicylate substrate by acetyl-coA hydrolysis assay
[5] = Inhibition of Mycobacterium marinum NAT using hydralazine substrate by acetyl-coA hydrolysis assay
[6] = target: T2, Arylamine N-acetyltransferase; assay: Inhibition of Pseudomonas aeruginosa NAT using 5-aminosalicylate substrate by acetyl-coA hydrolysis assay
[7] = Inhibition of Mycobacterium marinum NAT using 5-aminosalicylate substrate by acetyl-coA hydrolysis assay
[8] = test system: Mycobacterium tuberculosis; assay: Antimicrobial activity against Mycobacterium tuberculosis at 50 ug/ml relative to control; format: functional
[9] = Inhibition of Mycobacterium marinum NAT using isoniazed substrate by acetyl-coA hydrolysis assay
Mycobacterium marinum [10] = assay: Antimicrobial activity against Mycobacterium marinum at 80 ug/ml; format: functional, organism-based
Mycobacterium marinum [11] = assay: Antimicrobial activity against Mycobacterium marinum at 100 ug/ml; format: functional, organism-based

CC1(C)NC(=O)N(CC(O)COc2ccccc2C2CCCC2)C1=O (configuration not stated)
IC50 [1]: 9.4 µM
IC50 [2]: 37 µM
inhibition (Mycobacterium marinum [3]): 58%
IC50 [4]: 17.7 µM
IC50 [5]: 1.5 µM
IC50 [6]: 16.2 µM
IC50 [7]: 33.1 µM
inhibition at 50 µg/mL [8]: 20%

CC1(C)NC(=O)N(CC(O)COc2ccccc2-c2ccccc2)C1=O (configuration not stated)
inhibition (Mycobacterium marinum [3]): 24%

O=C1CNC(=O)N1CC(O)COc1ccccc1 (configuration not stated)
inhibition (Mycobacterium marinum [3]): 0%

CC1(C)NC(=O)N(CC(O)COc2ccc(-c3ccccc3)cc2)C1=O (configuration not stated)
inhibition (Mycobacterium marinum [3]): 8%

CC1(C)NC(=O)N(CC(O)COc2cccc(-c3ccccc3)c2)C1=O (configuration not stated)
inhibition (Mycobacterium marinum [3]): 6%

Cc1ccccc1OCC(O)CN1C(=O)NC(C)(C)C1=O (configuration not stated)
inhibition (Mycobacterium marinum [3]): 0.5%

CC1(C)NC(=O)N(CC(O)COc2ccccc2F)C1=O (configuration not stated)
inhibition (Mycobacterium marinum [3]): 0%

CC1(C)NC(=O)N(CC(O)COc2ccccc2-c2cccc3ccccc23)C1=O (configuration not stated)
inhibition (Mycobacterium marinum [3]): 28%

CC1(C)NC(=O)N(CC(O)COc2ccccc2Br)C1=O (configuration not stated)
inhibition (Mycobacterium marinum [3]): 24%

O=C1NC(c2ccccc2)C(=O)N1CC(O)COc1ccccc1 (configuration not stated)
inhibition (Mycobacterium marinum [3]): 0%

CC1(C)NC(=O)N(CC(O)COc2ccccc2[N+](=O)[O-])C1=O (configuration not stated)
inhibition (Mycobacterium marinum [3]): 4%

CC1(C)NC(=O)N(CC(O)COc2ccc(C3CCCC3)cc2)C1=O (configuration not stated)
IC50 [1]: > 50 µM
IC50 [2]: > 50 µM
inhibition (Mycobacterium marinum [3]): 0%
IC50 [4]: > 50 µM
IC50 [6]: > 50 µM
IC50 [9]: > 50 µM
IC50 [7]: > 50 µM
Activity (Mycobacterium marinum [10]): inactive
Activity (Mycobacterium marinum [11]): inactive
